Biological target: T1, MD2 (myeloid differentiation protein 2) (Homo sapiens, UniProt Q9Y6Y9)
T1 construct: gene LY96; recombinant human MD2 (rhMD2)
T1 sequence (Q9Y6Y9 19-160): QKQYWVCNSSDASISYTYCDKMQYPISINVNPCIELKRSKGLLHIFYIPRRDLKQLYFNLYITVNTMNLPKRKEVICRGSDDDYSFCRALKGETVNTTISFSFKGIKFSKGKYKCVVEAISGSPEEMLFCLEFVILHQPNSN
Test: SPR (ProteOn XPR36); supported by bis-ANS displacement and biotin-LPS competitive ELISA
Assay type: binding

COc1ccc(C(=O)/C=C/c2cc(OC)c(OC)c(OC)c2)cc1OC [compound 20]
Kd: 189 µM

From article PMC4846832, “Discovery of new MD2 inhibitor from chalcone derivatives with anti-inflammatory effects in LPS-induced acute lung injury” (Scientific Reports, 2016)
